US20250092065A1, “2-(INDAZOL-5-YL)-6-(PIPERIDIN-4-YL)-1,7-NAPHTHYRIDINE DERIVATIVES AND RELATED COMPOUNDS AS MODULATORS FOR SPLICING NUCLEIC ACIDS AND FOR THE TREATMENT OF PROLIFERATIVE DISEASES” (REMIX THERAPEUTICS INC., priority 2022, published 2025)
Like-named read-outs stand apart in the source and are kept apart here.

What was measured:
Assay type in all cases: cell-based, human
HTT mRNA = assay: RT-qPCR splicing assay, HTT mRNA canonical (CJ) and alternative (AJ) junction; conditions: Homo sapiens; for AC50: HTT alternative junction mRNA, read-out: HTT AJ (increase in AJ mRNA, AC50)
Method in brief: (§1)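 Canonical and alternative-exon junction isoforms were quantified by RT-qPCR in cell lysates, with ΔCt against a housekeeper (GAPDH/GUSB/PPIA), then ΔΔCt vs DMSO, converted to 2^(−ΔΔCt) and percent response. K562 or A673 cells were exposed for 24 h to 11 concentrations (3-fold, top final 10 uM).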

MYB mRNA = assay: RT-qPCR splicing assay, MYB mRNA canonical (CJ) and alternative (AJ) junction; conditions: Homo sapiens; for AC50: MYB alternative junction mRNA, read-out: MYB AJ (increase in AJ mRNA, AC50)
Method in brief: as §1

SMN2 mRNA = assay: RT-qPCR splicing assay, SMN2 mRNA; conditions: Homo sapiens, canonical junction qPCR panel, Table 4; read-out: SMN2 IC50 (decrease in CJ mRNA levels)
Method in brief: as §1

MYB = assay: HiBiT protein abundance assay, MYB (K562 HiBiT knock-in); conditions: HiBiT knock-in K562 cells, 24 hours, top dose 10 μM
Method in brief: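 Luminescence readout: Nano-Glo HiBiT lytic detection after 24 h compound exposure of K562 HiBiT knock-in cells, 10000 cells/well. Dosing 10-pt, 3-fold, top 10 μM final. % response vs untreated parental K562 and DMSO controls; 4PL fit, IC50 = concentration giving 50% protein abundance.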

Target C = assay: HiBiT protein abundance assay, Target C (K562 HiBiT knock-in); conditions: HiBiT knock-in K562 cells, 24 hours, top dose 10 μM
Method in brief: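 K562 HiBiT knock-in cells (10000/well) were treated 24 h at 37° C with a 10-point 3-fold dilution series (top 10 μM final, ≤0.25% DMSO). HiBiT luminescence was read after lytic LgBiT detection. Percent response used unmodified K562 and DMSO-treated knock-in controls, and IC50 came from a four-parameter fit at 50% of untreated.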

[1] = HTT canonical junction mRNA, RT-qPCR, read-out: HTT CJ (decrease in CJ mRNA levels, IC50)
[2] = canonical junction qPCR panel, Table 4, read-out: HTT IC50 (decrease in CJ mRNA levels)
[3] = MYB canonical junction mRNA, RT-qPCR, read-out: MYB CJ (decrease in CJ mRNA levels, IC50)
[4] = canonical junction qPCR panel, Table 4, read-out: MYB IC50 (decrease in CJ mRNA levels)

| Compound | AC50 (HTT mRNA; RT-qPCR) | IC50 (HTT mRNA; [1]) | IC50 (HTT mRNA; [2]) | AC50 (MYB mRNA; RT-qPCR) | IC50 (MYB mRNA; [3]) | IC50 (MYB mRNA; [4]) | IC50 (SMN2 mRNA) | IC50 (MYB) | IC50 (Target C) |
| --- | --- | --- | --- | --- | --- | --- | --- | --- | --- |
| CC(C)(C)NC1CCN(c2ccc3nc(-c4cc5oc(CO)nc5cc4O)ccc3n2)C1 (stereo not drawn) [Compound 336, 6-{6-[3-(tert-butylamino)pyrrolidin-1-yl]-1,5-naphthyridin-2-yl}-2-(hydroxymethyl)-1,3-benzoxazol-5-ol] | 100 to 1000 nM | < 100 nM | < 100 nM | 100 to 1000 nM | 100 to 1000 nM | 100 to 1000 nM | < 100 nM | < 100 nM | < 100 nM |
| CNC1CCN(c2ccc3nc(-c4cc5cn(C)nc5c(C)c4O)ncc3n2)C1 (stereo not drawn) [Compound 337, 2,7-dimethyl-5-{6-[3-(methylamino)pyrrolidin-1-yl]pyrido[3,2-d]pyrimidin-2-yl}indazol-6-ol] | 100 to 1000 nM | 100 to 1000 nM | 100 to 1000 nM | < 100 nM | < 100 nM | < 100 nM | < 100 nM | < 100 nM | 100 to 1000 nM |
| Cc1c(O)c(-c2ncc3nc(N4CCNCC4)ccc3n2)cc2cn(C)nc12 [Compound 338, 2,7-dimethyl-5-[6-(piperazin-1-yl)pyrido[3,2-d]pyrimidin-2-yl]indazol-6-ol] | 1000 to 10000 nM | 100 to 1000 nM | 100 to 1000 nM | 100 to 1000 nM | < 100 nM | < 100 nM | < 100 nM | < 100 nM | 100 to 1000 nM |
| Cc1nc2cc(O)c(-c3ccc4nc(N5CCC(NC(C)(C)C)C5)ccc4n3)cc2n1C (stereo not drawn) [Compound 339, 6-{6-[3-(tert-butylamino)pyrrolidin-1-yl]-1,5-naphthyridin-2-yl}-1,2-dimethyl-1,3-benzodiazol-5-ol] | 100 to 1000 nM | 100 to 1000 nM | 100 to 1000 nM | 100 to 1000 nM | 100 to 1000 nM | 100 to 1000 nM | 100 to 1000 nM | 100 to 1000 nM | 100 to 1000 nM |
| Cc1nc2cc(-c3ccc4nc(N5CCC(NC(C)(C)C)C5)ccc4n3)c(O)cc2n1C (stereo not drawn) [Compound 340, 6-{6-[3-(tert-butylamino)pyrrolidin-1-yl]-1,5-naphthyridin-2-yl}-2,3-dimethyl-1,3-benzodiazol-5-ol] | 100 to 1000 nM | 100 to 1000 nM | 100 to 1000 nM | 100 to 1000 nM | 100 to 1000 nM | 100 to 1000 nM | 100 to 1000 nM | 100 to 1000 nM | 100 to 1000 nM |
| Cn1cc2cc(-c3ccc4nc(N5CCC(NC67CC(O)(C6)C7)C5)ccc4n3)c(O)cc2n1 (stereo not drawn) [Compound 341, 5-{6-[3-({3-hydroxybicyclo[1.1.1]pentan-1-yl}amino)pyrrolidin-1-yl]-1,5-naphthyridin-2-yl}-2-methylindazol-6-ol] | 100 to 1000 nM | 100 to 1000 nM | 100 to 1000 nM | 100 to 1000 nM | 100 to 1000 nM | 100 to 1000 nM | < 100 nM | 100 to 1000 nM | < 100 nM |
| Cc1c(O)c(-c2ncc3nc(N4CCC5(CCN5)C4)ccc3n2)cc2cn(C)nc12 (stereo not drawn) [Compound 342, 5-(6-{1,6-diazaspiro[3.4]octan-6-yl}pyrido[3,2-d]pyrimidin-2-yl)-2,7-dimethylindazol-6-ol] | 100 to 1000 nM | 100 to 1000 nM | 100 to 1000 nM | 100 to 1000 nM | 100 to 1000 nM | 100 to 1000 nM | < 100 nM | 100 to 1000 nM | 100 to 1000 nM |
| Cc1cc2nc(-c3ccc4nc(N5CCC(NC(C)(C)C)C5)ccc4n3)cn2c(C)n1 (stereo not drawn) [Compound 344, N-tert-butyl-1-(6-{5,7-dimethylimidazo[1,2-c]pyrimidin-2-yl}-1,5-naphthyridin-2-yl)pyrrolidin-3-amine] | 1000 to 10000 nM | 1000 to 10000 nM | 1000 to 10000 nM | 1000 to 10000 nM | 1000 to 10000 nM | 1000 to 10000 nM | < 100 nM | 1000 to 10000 nM | 1000 to 10000 nM |
| CCc1nc2cc(O)c(-c3ccc4nc(N5CCC(NC(C)(C)C)C5)ccc4n3)cc2o1 (stereo not drawn) [Compound 346, 6-{6-[3-(tert-butylamino)pyrrolidin-1-yl]-1,5-naphthyridin-2-yl}-2-ethyl-1,3-benzoxazol-5-ol] | 1000 to 10000 nM | 1000 to 10000 nM | 1000 to 10000 nM | 1000 to 10000 nM | 1000 to 10000 nM | 1000 to 10000 nM | 100 to 1000 nM | 1000 to 10000 nM | 1000 to 10000 nM |
